Common to all, as to format: cell-based
In assay [1] the target is T1, human glucagon receptor (Glucagon-R) (Homo sapiens, UniProt P47871).
T1 construct: expressed in transfected cells
The assay is described as follows: Glucagon receptor efficacy assay (cAMP AlphaScreen, CHO cells). The settings on record: Table 1B; same protocol, different laboratory; read-out: EC50 hGCGR CHO-K1. From the text:
(§1) The cDNA encoding either the human glucagon receptor (Glucagon-R) (primary accession number P47871) or the human glucagon-like peptide 1 receptor (GLP-1R) (primary accession number P43220) were synthesized and cloned into a mammalian expression vector containing a Zeocin resistance marker.
(§2) The mammalian expression vectors encoding the Glucagon-R or the GLP-1-R were transfected into Chinese hamster ovary (CHO) cells by the Attractene method method. Stably expressing clones were obtained by Zeocin selection (250 μg/mL) upon limited dilution of cells resistant to the selection pressure. Glucagon-R and GLP-1-R cell clones expressing were picked, propagated and tested in the Glucagon-R and GLP-1-R efficacy assays as described below. One Glucagon-R expressing clone and one GLP-1-R expressing clone were chosen for compound profiling.
(§3) CHO cells expressing the human Glucagon-R, or human GLP-1-R were seeded 24 hours prior to the assay at 30,000 cells per well in 96-well microtiter plates in culture in 100 μl growth medium. On the day of analysis, growth medium was removed and the cells were washed once with 200 μl of assay buffer (Krebs-Ringer-buffer—KRBH). The buffer was removed and the cells were incubated for 15 min at room temperature in 10 μl KRBH (KRBH+10 mM HEPES, 5 mM NaHCO3, 0.1% (V/V) BSA) with 0.1 mM IBMX in deionized water containing increasing concentrations of test peptides. The reaction was stopped by the addition of lysis buffer (0.1% w/v BSA, 5 mM HEPES, 0.3% v/v Tween-20). After cell lysis for 10 min at room temperature, lysates were transferred to 384-well plates and 10 μl of acceptor/donorbead mixture as contained in the AlphaScreen™ cAMP Functional Assay Kit was added. After one hour of incubation at room temperature in the dark, the cAMP content was determined applying the AlphaScreen™ cAMP Functional Assay Kit from Perkin-Elmer according to manufacturer instructions. EC50 and relative efficacies compared to reference compounds (glucagon and GLP-1) were calculated applying computer aided curve fitting. The GLP-1/glucagon ratio is calculated as defined earlier.
In general terms: Alpha assays give light when donor and acceptor beads are brought close together.

Assay [2] has as its target T2, human glucagon-like peptide 1 receptor (GLP-1R) (Homo sapiens, UniProt P43220).
T2 construct: expressed in transfected cells
Nature of the assay: GLP-1 receptor efficacy assay (cAMP AlphaScreen, CHO cells). The settings on record: Table 1B; for Ratio GLP-1/Glucagon: EC50 [GLP-1R]/EC50 [Glucagon-R]; for EC50: same protocol, different laboratory, read-out: EC50 hGLP-1R CHO-K1.
Excerpt: as §1, §2, §3

For assay [3], the target named is T3, endogenous GLP-1 receptors (Mus musculus, UniProt O35659).
T3 construct: Agonistic activity of the test compounds on endogenous GLP-1 receptors; endogenous in cells
T3 sequence (O35659 22-463): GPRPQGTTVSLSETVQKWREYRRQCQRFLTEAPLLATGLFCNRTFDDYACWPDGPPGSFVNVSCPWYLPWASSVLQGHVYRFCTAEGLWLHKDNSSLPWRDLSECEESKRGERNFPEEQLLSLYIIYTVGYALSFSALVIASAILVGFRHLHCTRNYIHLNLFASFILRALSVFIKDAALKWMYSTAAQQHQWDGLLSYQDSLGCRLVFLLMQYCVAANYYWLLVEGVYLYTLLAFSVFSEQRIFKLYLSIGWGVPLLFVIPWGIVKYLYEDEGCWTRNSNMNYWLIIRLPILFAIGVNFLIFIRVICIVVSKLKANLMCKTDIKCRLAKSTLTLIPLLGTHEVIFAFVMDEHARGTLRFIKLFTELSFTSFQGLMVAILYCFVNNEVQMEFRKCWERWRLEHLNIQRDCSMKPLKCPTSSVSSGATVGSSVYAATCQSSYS
Nature of the assay: Agonistic activity on endogenous GLP-1 receptor (cAMP, murine insulinoma cell line). The note with it: intracellular cAMP, 15 minutes at 26° C.; read-out: EC50 GLP-1R (murine insulinoma cells). The method, then:
Agonistic activity of the test compounds on endogenous GLP-1 receptors was determined using a murine insulinoma cell line. Intracellular cAMP was used an indicator of receptor activation.
Cells were cultured for 24 h at a density of 10,000 cells/well in a 384-well plate. Medium was removed and 10 μL KRBH buffer (NaCl 130 mM, KCl 3.6 mM, NaH2PO4 0.5 mM, MgSO4 0.5 mM, CaCl2) 1.5 mM) containing test compound or GLP-1 (at increasing concentrations from […] to 100 nM) or solvent control (0.1% (v/v) DMSO) was added to the wells for 15 minutes at a temperature of 26° C.
The cellular cAMP content is measured using the AlphaScreen cAMP Functional Assay Kit (Perkin Elmer). Measurement was performed using the Envision (PerkinElmer) according to manufacturer's recommendations.
All measurements were performed in quadruplicate.
Results were converted into cAMP concentrations using a cAMP standard curve prepared in KRBH buffer containing 0.1% (v/v) DMSO. The resulting cAMP curves were plotted as absolute cAMP concentrations (nM) over log (test compound concentration) and analyzed using the curve fitting program XLfit.
Parameters calculated to describe the both the potency as well as the agonistic activity of each test compound on the endogenous GLP-1 receptors were:
pEC50 (negative logarithmic value of EC50, a concentration resulting in a half-maximal elevation of cAMP levels, reflecting the potency of the test compound);
Percent control (% CTL)(% cAMP elevation for each test compound concentration normalized based on the GLP-1-induced maximum cAMP response (100% CTL)).

For assay [4], the target named is T4, endogenous glucagon receptor (Rattus norvegicus, UniProt P30082).
T4 construct: Agonistic activity of the test compounds on endogenous glucagon receptor; endogenous in cells; host or cells: primary rat hepatocytes
T4 sequence (P30082 27-485): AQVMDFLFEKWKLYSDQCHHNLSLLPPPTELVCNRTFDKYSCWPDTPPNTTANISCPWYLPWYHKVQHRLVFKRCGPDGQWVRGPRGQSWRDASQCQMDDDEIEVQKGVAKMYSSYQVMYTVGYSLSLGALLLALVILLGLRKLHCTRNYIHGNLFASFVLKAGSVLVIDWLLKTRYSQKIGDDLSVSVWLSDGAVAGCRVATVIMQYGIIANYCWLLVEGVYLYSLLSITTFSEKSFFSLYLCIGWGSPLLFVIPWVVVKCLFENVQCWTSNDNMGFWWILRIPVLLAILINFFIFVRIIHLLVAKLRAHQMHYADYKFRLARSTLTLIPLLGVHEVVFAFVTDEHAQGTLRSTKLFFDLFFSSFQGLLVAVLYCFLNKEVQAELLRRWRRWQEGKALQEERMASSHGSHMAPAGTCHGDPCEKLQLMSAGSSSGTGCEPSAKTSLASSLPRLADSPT
The assay is described as follows: Agonistic activity on endogenous glucagon receptor (glycogen synthesis rate in primary rat hepatocytes). The settings on record: inhibition of glycogen synthesis rate, 3 hours, read-out: EC50 GLP-1R Rat hepat. The method, then: Agonistic activity of the test compounds on endogenous glucagon receptor was determined by measuring their effect on rate of glycogen synthesis in primary rat hepatocytes. Upon activation of the glucagon receptor, an inhibition of the glycogen synthesis rate is expected. Rate of glycogen synthesis was determined by counting the amount of radioactively labeled glucose incorporated into the cellular glycogen stores in a defined period of time.
Primary rat hepatocytes were cultured at a density of 40,000 cells/well in a 24-well plate for 24 hours at 37° C. and 5% CO2.
Medium was discarded and the cells washed with PBS. 180 μL of KRBH-based buffer containing 0.1% BSA and glucose at a concentration of 22.5 mM was then added to the wells, followed by test compound and 40 μCi/ml D-[U14C] glucose (20 μL each). Incubation was continued for 3 hours.
At the end of the incubation period, the incubation buffer was aspirated and cells washed once with ice-cold PBS before lysis by incubation for 30 min at room temperature with 100 μL 1 mol/l NaOH.
Cell lysates were transferred to 96-well filter plates and glycogen precipitated by incubating the filter-plates for 120 min at 4° C. followed by washing the filter plates 4 times with ice-cold ethanol (70%). The resulting precipitates were filtered to dryness and the amount of incorporated ^14C-glucose determined by using a Topcount scintillation counter according to manufacturer's recommendations.
Wells with vehicle controls (0.1% (v/v) DMSO in KRBH buffer) were included as reference for non-inhibited glycogen synthesis (100% CTL). Wells without added D-[U^14C] glucose were included as controls for non-specific background signal (subtracted from all values). Endogenous glucagon peptide was used as a positive control.
All treatments were performed at least in triplicates.
Parameters calculated to describe the both the potency as well as the agonistic activity of each test compound on the endogenous glucagon receptor are pEC50 and % CTL. % CTL is determined by calculating the percentage of CPM/well in the presence of the test compound compared to the CPM/well of the vehicle control after subtracting the background CPM/well: [CPM/well(basal)−CPM/well(sample)]*100/[CPM/well(basal)−CPM/well(control)]
An activator of the glucagon receptor will result in an inhibition of the glycogen synthesis rate and will give % CTL values between 0% CTL (complete inhibition) and 100% CTL (no observable inhibition).
The resulting activity curves were plotted as absolute counts (unit: cpm/sample) over log (test compound concentration) and analyzed using the curve fitting program XLfit.
pEC50 (negative logarithmic value of EC50) reflects the potency of the test compound.
The terms EC50 and pEC50 quoted in relation to GLP-1R activation could equally be regarded as IC50 and pIC50 in relation to glycogen synthesis.

Structures are written as SMILES. *1 amine or outer side, *2 acyl side, *3 side chain or, on linkers, in order; H or OH if unused. Where a SMILES comes first, the peptide text is derived from it. Side-chain parts run from the residue outwards. [ ]: non-standard residue; d: D form. The star is where a group is joined. γGlu = O=C(O)[C@H](CCC(=O)[*:2])N[*:1]; Palmitoyl = CCCCCCCCCCCCCCCC(=O)*; Aib = CC(C)(N)C(=O)O

T2 sequence (P43220 24-463): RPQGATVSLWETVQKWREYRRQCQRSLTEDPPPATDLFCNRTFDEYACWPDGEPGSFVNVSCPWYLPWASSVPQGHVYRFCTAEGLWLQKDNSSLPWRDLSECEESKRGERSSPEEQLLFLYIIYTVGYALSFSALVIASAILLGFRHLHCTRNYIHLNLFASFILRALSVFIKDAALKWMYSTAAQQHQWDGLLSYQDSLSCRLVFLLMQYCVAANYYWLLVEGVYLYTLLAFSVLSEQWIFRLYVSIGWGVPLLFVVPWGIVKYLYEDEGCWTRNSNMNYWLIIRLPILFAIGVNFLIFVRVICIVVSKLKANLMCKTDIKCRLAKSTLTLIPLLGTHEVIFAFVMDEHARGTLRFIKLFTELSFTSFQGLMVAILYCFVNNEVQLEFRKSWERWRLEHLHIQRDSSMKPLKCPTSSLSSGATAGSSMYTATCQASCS
T1 sequence (P47871 26-477): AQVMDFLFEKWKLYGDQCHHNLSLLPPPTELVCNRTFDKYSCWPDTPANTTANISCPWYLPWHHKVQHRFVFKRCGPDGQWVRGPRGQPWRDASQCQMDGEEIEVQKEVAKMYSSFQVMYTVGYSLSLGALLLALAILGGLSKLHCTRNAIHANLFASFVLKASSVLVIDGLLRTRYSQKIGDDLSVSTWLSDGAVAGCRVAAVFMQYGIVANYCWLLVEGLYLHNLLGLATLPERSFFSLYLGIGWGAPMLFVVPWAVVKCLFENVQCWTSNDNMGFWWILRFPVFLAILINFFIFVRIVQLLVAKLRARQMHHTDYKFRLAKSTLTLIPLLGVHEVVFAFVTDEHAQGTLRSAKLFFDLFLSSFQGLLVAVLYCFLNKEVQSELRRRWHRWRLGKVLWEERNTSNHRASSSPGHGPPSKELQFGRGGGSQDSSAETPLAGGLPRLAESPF

Consider `CCCCCCCCCCCCCCCC(=O)N[C@@H](CCC(=O)NCCCC[C@H](NC(=O)[C@H](CO)NC(=O)[C@H](CCC(=O)O)NC(=O)[C@H](CC(C)C)NC(=O)[C@H](Cc1ccc(O)cc1)NC(=O)[C@H](CCCCN)NC(=O)[C@H](CO)NC(=O)[C@H](Cc1ccc(O)cc1)NC(=O)[C@H](CC(=O)O)NC(=O)[C@H](CO)NC(=O)[C@@H](NC(=O)[C@H](Cc1ccccc1)NC(=O)[C@@H](NC(=O)CNC(=O)[C@H](Cc1c[nH]cn1)NC(=O)C(C)(C)NC(=O)[C@@H](N)Cc1c[nH]cn1)[C@@H](C)O)[C@@H](C)O)C(=O)N[C@@H](C)C(=O)N[C@@H](C)C(=O)N[C@@H](CCC(=O)O)C(=O)N[C@@H](CCC(=O)O)C(=O)N[C@@H](Cc1ccccc1)C(=O)N[C@H](C(=O)N[C@@H](CCC(=O)O)C(=O)N[C@@H](Cc1c[nH]c2ccccc12)C(=O)N[C@@H](CC(C)C)C(=O)N[C@@H](CCC(=O)O)C(=O)N[C@@H](CO)C(=O)N[C@@H](C)C(=O)O)[C@@H](C)CC)C(=O)O` [Compound 17, H-H-Aib-HGTFTSDYSKYLES-K(Hexadecanoyl-isoGlu)-AAEEFIEWLESA-OH] (H-H[Aib]HGTFTSDYSKYLESK([γGlu-Palmitoyl])AAEEFIEWLESA-OH), for which the EC50 in assay [1] came to 0.05 nM; in assay [2], 0.23 nM; in assay [3], 0.89 nM; in assay [4], 0.18 nM. In assay [2], the “Ratio GLP-1/Glucagon” value came to 4.6.
As to `CCCCCCCCCCCCCCCC(=O)N[C@@H](CCC(=O)NCCCC[C@H](NC(=O)[C@H](CCC(=O)O)NC(=O)[C@H](CCC(=O)O)NC(=O)[C@H](CC(C)C)NC(=O)[C@H](Cc1ccc(O)cc1)NC(=O)[C@H](CCCCN)NC(=O)[C@H](CO)NC(=O)[C@H](Cc1ccc(O)cc1)NC(=O)[C@H](CC(=O)O)NC(=O)[C@H](CO)NC(=O)[C@@H](NC(=O)[C@H](Cc1ccccc1)NC(=O)[C@@H](NC(=O)CNC(=O)[C@H](Cc1c[nH]cn1)NC(=O)[C@H](CO)NC(=O)[C@@H](N)Cc1c[nH]cn1)[C@@H](C)O)[C@@H](C)O)C(=O)N[C@@H](C)C(=O)N[C@@H](C)C(=O)N[C@@H](Cc1c[nH]cn1)C(=O)N[C@@H](CCC(=O)O)C(=O)N[C@@H](Cc1ccccc1)C(=O)N[C@H](C(=O)N[C@@H](CCC(=O)O)C(=O)N[C@@H](Cc1c[nH]c2ccccc12)C(=O)N[C@@H](CC(C)C)C(=O)N[C@@H](CCC(=O)O)C(=O)N[C@@H](CO)C(=O)N[C@@H](C)C(=O)O)[C@@H](C)CC)C(=O)O` [Compound 18, H-HSHGTFTSDYSKYLEE-K(Hexadecanoyl-isoGlu)-AAHEFIEWLESA-OH] (H-HSHGTFTSDYSKYLEEK([γGlu-Palmitoyl])AAHEFIEWLESA-OH), the EC50 in assay [1] is 0.14 nM; in assay [2], 0.87 nM; in assay [3] it was 0.99 nM; in assay [4], 0.18 nM. Besides, the “Ratio GLP-1/Glucagon” value in assay [2] was 6.2.
The corresponding values for `CCCCCCCCCCCCCCCC(=O)N[C@@H](CCC(=O)NCCCC[C@H](NC(=O)[C@H](CCC(=O)O)NC(=O)[C@H](CCC(=O)O)NC(=O)[C@H](CC(C)C)NC(=O)[C@H](Cc1ccc(O)cc1)NC(=O)[C@H](CCCCN)NC(=O)[C@H](CO)NC(=O)[C@H](Cc1ccc(O)cc1)NC(=O)[C@H](CC(=O)O)NC(=O)[C@H](CO)NC(=O)[C@@H](NC(=O)[C@H](Cc1ccccc1)NC(=O)[C@@H](NC(=O)CNC(=O)[C@H](Cc1c[nH]cn1)NC(=O)C(C)(C)NC(=O)[C@@H](N)Cc1c[nH]cn1)[C@@H](C)O)[C@@H](C)O)C(=O)N[C@@H](C)C(=O)N[C@@H](C)C(=O)N[C@@H](Cc1c[nH]cn1)C(=O)N[C@@H](CCC(=O)O)C(=O)N[C@@H](Cc1ccccc1)C(=O)N[C@H](C(=O)N[C@@H](CCC(=O)O)C(=O)N[C@@H](Cc1c[nH]c2ccccc12)C(=O)N[C@@H](CC(C)C)C(=O)N[C@@H](CCC(=O)O)C(=O)N[C@@H](CO)C(=O)N[C@@H](C)C(N)=O)C(C)C)C(=O)O` [Compound 19, H-H-Aib-HGTFTSDYSKYLEE-K(Hexadecanoyl-isoGlu)-AAHEFVEWLESA-NH2] (H-H[Aib]HGTFTSDYSKYLEEK([γGlu-Palmitoyl])AAHEFVEWLESA-NH2) are 0.08 nM, 0.27 nM, 0.33 nM, 0.06 nM and 3.38.

Broadly, the EC50 is the concentration needed to bring the measured effect to its halfway point.

Source of the values: patent US10253081B2, “Glucagon analogues” (Zealand Pharma A/S, priority 2012, dated 2019).
